Laboratory results as given in US20150071918A1, “PEPTIDES FOR THE TREATMENT OF CANCER” (H. LEE MOFFITT CANCER CENTER AND RESEARCH INSTITUTE, INC., priority 2012, published 2015).
“Also recorded” adds a separate entry of the source. *1 amine or outer side, *2 acyl side, *3 side chain or, on linkers, in order; H or OH if unused. Where a SMILES comes first, the peptide text is derived from it. Bridges are numbered along the chain shown (N, C = ends). [ ]: non-standard residue; d: D form. The star is where a group is joined. dProlinol(O-CH2CO) = O=C(COC[C@H]1CCCN1[*:1])[*:2]; N(2-Aminoethyl)Gly = O=C(CN(CCN[*:3])[*:1])[*:2]; Nle = CCCC[C@H](N)C(=O)O; Ms = CS(=O)(=O)*

What was measured:
[1] = test system: H929 myeloma cells engrafted into the bone implant; experiment: MM SCID-Hu in vivo model, tumor burden by circulating Kappa/paraprotein levels (ELISA); parameters: species or system mice; settings: H929, 8 mg/kg i.p.
Protocol: Briefly, 50,000 H929 myeloma cells were engrafted into the bone implant for 10 days prior to initiation of peptide treatment. Following tumor engraftment mice were randomized (0 time point) and injected with 8 mg/kg c-HYD1 or vehicle control (VC) daily (I.P. injections) for 14 days and every other day from day 14-28 at which time treatment stopped. Tumor burden was measured by circulating Kappa levels by ELISA weekly. N=10 mice for vehicle control (VC) and 9 mice for c-HYD1 treated.
(§1) FIG. 49. Cyclic HYD1 (MTI-101) was dosed daily at 8 mpk for the first week and then every other day for 4 weeks. The mice were bled weekly to measure paraprotein as a surrogate for tumor burden. […] Three of five vehicle-treated control animals had died by 35 days which contributes to the large SD.
FIGS. 61A-61C. MTI-101 inhibits tumor growth and increases survival in two independent myeloma in vivo models. […] FIG. 61A: Scid-hu model: Following tumor engraftment (2 weeks) mice were randomized (0 time point) and injected with 8 mg/kg MT101 or vehicle control (control) daily (i.p. injections) for 14 days and every other day from day 14-28 at which time treatment stopped. Tumor burden was measured by circulating paraprotein (K light chain) levels by ELISA weekly. […] Images were quantified utilizing Image J and tumor volume in the bone was quantified relative to the entire bone volume (n=5 tibias per group).

[2] = test system: lung cancer (LC) cell lines; experiment: High-throughput CellTiter-Blue cell viability assay in lung cancer cell lines; type: cell-based; settings: IC50 values shown only in figure
Protocol: FIG. 35 is a graph showing IC-50 levels of 24 lung cancer (LC) cell lines treated with cyclized HYD1 (MTI-101). The activity of c-HYD1 was screened using a high-throughput CellTiter-Blue cell viability assay. Cell viability was assessed by the ability of the remaining viable cells to bioreduce resazurin to resorufin. Resazurin is dark blue in color and has little intrinsic fluorescence until it is reduced to resorufin (579 nm Ex/584 nm Em). The change in fluorescence was measured with a Synergy 4 microplate reader (Bio-Tek Instruments, Inc.). […] IC50s were determined as the concentration of drug required for 50% reduction in growth/viability. Shown is the mean IC50 value for each lung cancer cell line tested. Experiments were repeated 2-3 times.
FIG. 67. […] IC50 values were calculated from survival curves and the mean value is represented (n=2 independent experiments).

[3] = test system: PC9 and HCC4006 cells (activating EGFR mutations); experiment: MTT survival, combination index with EGFR inhibitor, 72 hours; type: cell-based; settings: PC9 or HCC4006 cells
Protocol: FIG. 68. MTI-101 and EGFR inhibitors are synergistic in cell lines with activating EGFR mutations. Cell lines with activating EGFR mutations (PC9 and HCC4006) were treated with varying concentrations of erlotinib or MTI-101 (also referred to as HM-27) for 72 hours and survival was assayed by MTT analysis. Generated data were used to calculate combination index (CI).
FIG. 69. MTI-101 plus EGFR inhibitors are synergistic in lung cancer cell lines with EGFR activating mutations, and MTI-101 plus MEK inhibitors are synergistic in cell lines arboring activating RAS or BRAFF mutations. Values indicate average calculated combination index (CI). Additive (CI=1), synergism (CI<1) and, antagonism (CI>1). […] Cell viability was measured by the MTT assay. Data generated were used to calculate a Chou and Talalay Combination Index (CI).

[4] = Weight of mice and overt signs of toxicity under peptide injection; type: in vivo; settings: mice treated with cyclized HYD1
Protocol: FIG. 37 is a graph showing the effect of cyclized HYD1 (MTI-101) injection on the weight of mice.
as §1

NB4 = experiment: HM-27 induced cell death in AML cell line, TO-PRO-3 staining and FACS; type: cell-based
Protocol: (§2) FIGS. 42A-42B. […] U937, HL-60 and NB4 cells were treated with varying doses of HM-27 for 24 hr and cell death was determined as described in Materials and Methods. U937 and NB4 cells (150,000) exposed to HM-27 for 24 h were collected and analyzed for Caspase 3 activity using the FITC Active Caspase-3 Apoptosis Kit (BDPharmingen) as per manufacturer's instructions. All figures are a representative of three independent experiments done in triplicates.
(§3) Cells were collected after incubation with HM-27 and analyzed for markers of cell death indicative of either apoptosis, autophagy or necrosis. BM-MNCs were isolated from marrow aspirates of AML patients and normal individuals by Ficoll-Paque centrifugation and further enriched for CD34+ cells using immunomagnetic beads. Cell death was assessed by TO-PRO-3 staining followed by FACS analysis.

U937 = experiment: as above; type: cell-based
Protocol: as §2, §3

HL-60 = experiment: as above; type: cell-based
Protocol: as §2, §3

[5] = test system: cleaved caspase-3, ATP in NCI-H929 and U266 MM cells; experiment: Mechanism of cell death in MM cells (cleaved caspase-3, ATP, ROS); type: cell-based
Protocol: FIGS. 56A-56F. […] FIG. 56A: Chemical structure of MTI-101 (also referred to herein as HM-27). FIG. 56B: Direct comparison of HYD1 and MTI-101 in NCI-H929 cells. […] FIG. 56F: NCI-H929 and U266 cells were treated with MTI-101 or tert-butyl hydrogen peroxide as a positive control for 1 hour, stained with CellRox Green for 30 minutes and washed, with FACS analysis to determine ROS production. All experiments were run in triplicate and repeated 3 independent times. Statistical significance using ANOVA, *P≦0.05. Similar to linear peptide HYD1, the cyclized peptide MTI-101 induces caspase independent cell death in myeloma cell lines.

H929 cells = experiment: Growth inhibition by MTT, combination index (CalcuSyn), 72 hours; type: cell-based, human; settings: H929, 72 hours
Protocol: FIGS. 59A-59B. H929 cells were treated with varying concentrations of MTI-101 alone or in combination with either chloroquine (FIG. 59A), or bortezomib (FIG. 59B). Following 72 hours of drug treatment growth inhibition was determined by MTT analysis. Data generated were used to calculate the combination index (CI) using CalcuSyn software developed by Chou and Talalay. MTI-101 is synergistic with bortezomib (a proteosome inhibitor) and chloroquine (an inhibitor of autophagy).

**Q.** What does the source list for CCCC[C@@H]1NC(=O)CN(S(C)(=O)=O)CCNC(=O)[C@H](CCCCN)NC(=O)[C@H](CC(C)C)NC(=O)[C@H](CCCCN)NC(=O)[C@H](CC(C)C)NC(=O)[C@H](CCCCN)NC(=O)COC[C@H]2CCCN2C(=O)[C@H](Cc2c[nH]c3ccccc23)NC(=O)[C@H](C)NC(=O)[C@H](C(C)C)NC(=O)[C@H](C(C)C)NC1=O [MTI-101] (Ms-[N(2-Aminoethyl)Gly][Nle]VVAW[dProlinol(O-CH2CO)]KLKLK; lactam 1-C)?
**A.** tumor growth / tumor burden [1]: significantly reduces tumor growth (p<0.05 ANOVA); tumor growth / tumor burden ([1]; listed as c-HYD1): completely inhibits human MM tumor xenographs growth in SCID mice; also recorded: inhibits multiple myeloma engrafted tumor in the SCID-HU model; growth of lung cancer cell lines [2]: inhibits the growth of several lung cancer cell lines; combination with EGFR inhibitor Erlotinib [3]: Synergistic growth inhibition; weight loss / signs of toxicity [4]: No weight loss or any overt signs of toxicity were observed; weight loss / signs of toxicity ([4]; listed as c-HYD1): no apparent toxicity; IC50 (NB4): 65 µM; IC50 (U937): 38.5 µM; IC50 (HL-60): 76.2 µM; cleaved caspase-3 activity in MM cells [5]: does not induce cleaved caspase-3 activity; total cellular ATP in MM cells [5]: reduces total cellular levels of ATP in NCI-H929 and U266 cells; combination with bortezomib (H929 cells): synergistic; combination with chloroquine (H929 cells): synergistic
